This is an account of results in patent US4847241A, “Fluorenyl substituted tyrosyl dipeptide amides which are useful in treating pain” (priority 1988, dated 1989).

For one experiment, the system named is Writhing Mouse. Description: Writhing Assay (phenylbenzoquinone). The format is in vivo, mice. The following applies: 30 min before phenylbenzoquinone i.p., Active refers to the effect of the screening dose; for Writhing Mouse, Oral: screening dose 10 mg/kg p.o. (intragastric); for Writhing Mouse, Subc.: screening dose 10 mg/kg s.c. How it is done:
Male Charles River albino mice (CD-1/HAM/1LR) weighing between 20 and 30 grams were used. Thirty minutes after subcutaneous or intragastric administration of the test compound (0.1 mg/10 gram body weight), 0.025% (w/v) phenylbenzoquinone was injected intraperitoneally (0.1 ml/10 gram body weight). Five minutes later, each mouse was placed in a large glass beaker and the number of writhes that occurred in the subsequent ten minutes is counted. A writhe consisted of dorsoflexion of the back, extension of the hindlimbs, and strong contraction of the abdominal musculature. The test compound was considered to have produced analgesia in a mouse if the number of writhes elicited by phenylbenzoquinone was equal to or less than one-half the median number of writhes recorded for the saline-treated group that day. The results were expressed as the number of mice (out of a possible ten) in which the test compound produced analgesia.

The test system of the next experiment is rat. The following applies: injected directly into the brain of the rat; cited from earlier work.
The target of experiment [1] is opiate receptors isolated from rat brain. The format is binding. The following applies: 1 nM 3H-Naloxone, rat brain receptor membranes, screening concentration 10^-5 molar.

As to “2,6-dimethyltyrosyl-N-[3-(2-thienyl)-2E-propenyl]-D-alaninamide, monohydrochloride [Example 52]”, in the experiment with Writhing Mouse, the “Writhing Mouse, Oral” value is “Inactive” and the “Writhing Mouse, Subc.” value is listed as “Active”.

For the molecule methionine enkepthalin, in the experiment on rat, the analgesic activity result is “weak, fleeting analgesic activity”.

`Cc1cc(O)cc(C)c1C[C@H](N)C(=O)N[C@H](C)C(=O)NCCCc1cccs1.Cl` (single isomer, unassigned) [Example 46, 2,6-dimethyltyrosyl-N-[3-(2-thienyl)propyl]-D-alaninamide, monohydrochloride DF isomer]: the IC50 in experiment [1] (read-out: Opiate Binding, IC50) was 0.22 µM. In addition, in the experiment with Writhing Mouse, the “Writhing Mouse, Oral” value is reported as “Inactive” and the “Writhing Mouse, Subc.” value is on record as “Inactive”.

With `Cc1cc(O)cc(C)c1CC(N)C(=O)N[C@H](C)C(=O)N1CCCc2ccccc21.Cl` (stereo partly drawn) [Example 30, α-amino-4-hydroxy-2,6-dimethyl-N-[1R-methyl-2-oxo-2-(1,2,3,4-tetrahydro-1-quinolinyl)ethyl]benezenepropanamide, monohydrochloride], in the experiment on Writhing Mouse, the “Writhing Mouse, Oral” value is given as “Inactive” and the “Writhing Mouse, Subc.” value is listed as “Inactive”.

For `C[C@@H](NC(=O)OCc1ccccc1)C(=O)NC1Cc2ccccc2C1` [Example 20, phenylmethyl [2-[(2,3-dihydro-1H-inden-2-yl)amino]-1R-methyl-2-oxoethyl]carbamate], the “Opiate Binding, IC50” value in experiment [1] was “Inactive”. For the same molecule, in the experiment on Writhing Mouse, the “Writhing Mouse, Oral” value is reported as “Inactive” and the “Writhing Mouse, Subc.” value is “Active”.

With `C[C@@H](N)C(=O)NC1Cc2ccccc2C1` [Example 21, 2R-amino-N-(2,3-dihydro-1H-inden-2-yl)propanamide], the “Opiate Binding, IC50” value in experiment [1] was “Inactive”. Moreover, in the experiment with Writhing Mouse, the “Writhing Mouse, Oral” value is listed as “Inactive” and the “Writhing Mouse, Subc.” value is “Active”.

Turning to “2,6-dimethyltyrosyl-N-(6-methoxy-6-oxohexyl)-D-alaninamide, monohydrochloride [Example 5]”, in the experiment with Writhing Mouse, the “Writhing Mouse, Oral” value is on record as “Inactive” and the “Writhing Mouse, Subc.” value was “Inactive”.

As for “2,6-dimethyltyrosyl-N-(2,3-dihydro-1H-inden-2-yl)-D-alaninamide, monohydrochloride [Example 24]”, in the experiment with Writhing Mouse, the “Writhing Mouse, Oral” value was “Inactive” and the “Writhing Mouse, Subc.” value is listed as “Lethal”.

“2-(2R-amino-1-oxopropyl)-1,2,3,4-tetrahydroisoquinoline, monohydrochloride [Example 32]”: in experiment [1], the “Opiate Binding, IC50” value is listed as “Inactive”. Also, in the experiment on Writhing Mouse, the “Writhing Mouse, Oral” value is on record as “Active” and the “Writhing Mouse, Subc.” value is given as “Inactive”.

“2,6-dimethyltyrosyl-N-[3-(3-thienyl)-2E-propenyl]-D-alaninamide, monohydrochloride [Example 58]”: in the experiment with Writhing Mouse, the “Writhing Mouse, Oral” value was “Inactive” and the “Writhing Mouse, Subc.” value is recorded as “Active”.

With `C[C@@H](N)C(=O)NCCCc1cccs1` [Example 44, 2R-amino-N-[3-(2-thienyl)propyl]propanamide], the “Opiate Binding, IC50” value in experiment [1] is listed as “Inactive”. In the experiment on Writhing Mouse, the “Writhing Mouse, Oral” value is reported as “Active” and the “Writhing Mouse, Subc.” value is “Active”.

As for `Cc1cc(O)cc(C)c1C[C@H](N)C(=O)N[C@H](C)C(=O)N1CCc2ccccc2C1.Cl` (single isomer, unassigned) [Example 35, α-amino-4-hydroxy-2,6-dimethyl-N-[1R-methyl-2-oxo-2-(1,2,3,4-tetrahydro-2-isoquinolinyl)ethyl]benzenepropanamide, monohydrochloride, isomer S], in the experiment on Writhing Mouse, the “Writhing Mouse, Oral” value was “Active” and the “Writhing Mouse, Subc.” value is reported as “Active”.

Consider `Cc1cc(O)cc(C)c1CC(NC(=O)OC(C)(C)C)C(=O)N[C@H](C)C(=O)NCCOc1ccccc1` (mixture of isomers) [Example 115, N-[(1,1-dimethylethoxy)carbonyl]02,6-dimethyl-DL-tyrosyl-N-(2-phenoxyethyl)-D-alaninamide], for which, in the experiment with Writhing Mouse, the “Writhing Mouse, Oral” value is reported as “Active” and the “Writhing Mouse, Subc.” value was “Active”.

As to “2,6-dimethyltyrosyl-N-(6-methoxy-6-oxohexyl)-D-alaninamide, monohydrochloride [Example 7]”, in the experiment on Writhing Mouse, the “Writhing Mouse, Oral” value is given as “Inactive” and the “Writhing Mouse, Subc.” value was “Inactive”.

With `C[C@@H](NC(=O)OCc1ccccc1)C(=O)N1CCCc2ccccc21` [Example 25, phenylmethyl [1R-methyl-2-oxo-2-(1,2,3,4-tetrahydro-1-quinolinyl)ethyl]carbamate], in the experiment on Writhing Mouse, the “Writhing Mouse, Oral” value is given as “Inactive” and the “Writhing Mouse, Subc.” value was “Inactive”.

As for `Cc1cc(O)cc(C)c1CC(NC(=O)OC(C)(C)C)C(=O)N[C@H](C)C(=O)NCCSc1ccccc1` (mixture of isomers) [Example 108, N-[(1,1-dimethylethoxy)carbonyl]-2,6-dimethyl-DL-tyrosyl-N-[2-(phenylthio)ethyl]-D-alaninamide], in the experiment with Writhing Mouse, the “Writhing Mouse, Oral” value is listed as “Inactive” and the “Writhing Mouse, Subc.” value is reported as “Active”.

Regarding `Cc1cc(O)cc(C)c1C[C@H](N)C(=O)N[C@@H](C)C(=O)N1CCCc2ccccc21.Cl` (relative stereo) [Example 29, αS-R*-amino-4-hydroxy-2,6-dimethyl-N-[1S*-methyl-2-oxo-2-(1,2,3,4-tetrahydro-1-quinolinyl)ethyl]benzenepropanamide, monohydrochloride], in the experiment on Writhing Mouse, the “Writhing Mouse, Oral” value is on record as “Inactive” and the “Writhing Mouse, Subc.” value is on record as “Inactive”.

“2,6-dimethyltyrosyl-N-[3-(2-thienyl)propyl]-D-alaninamide, monohydrochloride [Example 47]”: in the experiment with Writhing Mouse, the “Writhing Mouse, Oral” value is given as “Active” and the “Writhing Mouse, Subc.” value is given as “Active”.

“α-amino-4-hydroxy-2,6-dimethyl-N-[1R-methyl-2-oxo-2-(1,2,3,4-tetrahydro-2-isoquinolinyl)ethyl]benzenepropanamide, monohydrochloride [Example 37]”: in the experiment with Writhing Mouse, the “Writhing Mouse, Oral” value is listed as “Inactive” and the “Writhing Mouse, Subc.” value is “Inactive”.

As for `COc1ccc(CCCNC(=O)[C@@H](C)N)cc1` [Example 60, αR-amino-N-[3-(4-methoxyphenyl)propyl]propanamide], in the experiment on Writhing Mouse, the “Writhing Mouse, Oral” value is recorded as “Active” and the “Writhing Mouse, Subc.” value is recorded as “Active”.

On to `Cc1cc(O)cc(C)c1C[C@H](N)C(=O)N[C@H](C)C(=O)NCCC(c1ccccc1)c1ccccc1.Cl` [Example 73, 2,6-dimethyltyrosyl-N-(3,3-diphenylpropyl)-D-alaninamide, monohydrochloride], for which, in the experiment on Writhing Mouse, the “Writhing Mouse, Oral” value is “Inactive” and the “Writhing Mouse, Subc.” value is on record as “Active”.

As for `Cc1cc(O)cc(C)c1C[C@H](N)C(=O)N[C@H](C)C(=O)NCCc1cccs1.Cl` [Example 39, 2,6-dimethyl-L-tyrosyl-N-[2-(2-thienyl)ethyl]-D-alainamide, monohydrochloride], in the experiment with Writhing Mouse, the “Writhing Mouse, Oral” value is reported as “Inactive” and the “Writhing Mouse, Subc.” value is listed as “Inactive”.

With `Cc1cc(O)cc(C)c1C[C@H](N)C(=O)N[C@H](C)C(=O)NCCSc1ccccc1.Cl` [Example 109, 2,6-dimethyltyrosyl-N-[2-(phenylthio)ethyl]-D-alaninamide, monohydrochloride], in the experiment on Writhing Mouse, the “Writhing Mouse, Oral” value is reported as “Inactive” and the “Writhing Mouse, Subc.” value is reported as “Active”.
